Experimental data reported in ChEMBL document CHEMBL4613241, “Disulfide Cleavage in a Dimeric Epipolythiodioxopiperazine Natural Product Diminishes Its Apoptosis-Inducing Effect but Enhances Autophagy in Tumor Cells” (2020).
Calls of active or inactive are those of the source. The calls are words filed in the database; no cut-off is given here.

What was measured:
HepG2 [1] = experiment: Induction of apoptosis in human HepG2 cells assessed as increase in cleaved PARP level by measuring ratio of cleaved PARP to total PARP level at 0.5 uM after 12 hrs by Western blot analysis; assay type: functional
HepG2 [2] = experiment: Inhibition of colony formation in human HepG2 at 0.1 uM after 2 weeks by trypan blue staining based assay relative to control; assay type: functional; conditions: HepG2, 336 h
HCT-116 = experiment: Inhibition of colony formation in human HCT116 at 0.1 uM after 2 weeks by trypan blue staining based assay relative to control; assay type: functional; conditions: HCT-116, 336 h
HepG2 [3] = experiment: Antiproliferative activity against human HepG2 cells assessed as reduction in cell viability at 0.5 uM by MTS assay; assay type: functional, cell-based; conditions: TDE = time-dependent effect
ACHN = experiment: Antiproliferative activity against human ACHN cells assessed as reduction in cell viability at 5 uM measured up to 72 hrs by MTS assay; assay type: functional, cell-based
T-24 = experiment: Induction of apoptosis in human T24 cells assessed as increase in cleaved PARP1 level at 5 uM after 12 hrs by Western blot analysis; assay type: functional, cell-based
HepG2 [4] = experiment: Induction of apoptosis in human HepG2 cells assessed as increase in cleaved PARP1 level at 5 uM after 12 hrs by Western blot analysis; assay type: functional, cell-based
HepG2 [5] = experiment: Induction of autophagy in human HepG2 cells assessed as ratio of LC3-2 level to total ERK level at 0.5 uM after 2 hrs in presence of 2-DG by Western blot analysis (reference value: 1.1); assay type: functional
HepG2 [6] = experiment: Antiproliferative activity against human HepG2 cells assessed as reduction in cell viability at 5 uM by MTS assay; assay type: functional, cell-based; conditions: TDE = time-dependent effect
HeLa = experiment: Inhibition of colony formation in human HeLa at 1 to 5 uM after 2 weeks by trypan blue staining based assay; assay type: functional, cell-based

Structure (SMILES) | Ratio (HepG2 [1]) | inhibition at 0.1 µM (HepG2 [2]) [%] | inhibition at 0.1 µM (HCT-116) [%] | Activity (HepG2 [3]) | Activity (ACHN) | Activity (T-24) | Activity (HepG2 [4]) | Ratio (HepG2 [5]) | Activity (HepG2 [6]) | inhibition (HeLa)
CC[C@@]12SS[C@]3(C(=O)N1C)[C@@H](O)C1(C45c6ccccc6N[C@@H]4N4C(=O)[C@]6([C@@H](C)O)SS[C@]4(C(=O)N6C)[C@H]5O)c4ccccc4N[C@@H]1N3C2=O (stereo not given in full) | 0.1 | 100 | 100 | Tde |  |  |  |  |  | 
CCC1(SC)C(=O)N2[C@H]3N(C)c4ccccc4C3(C34c5ccccc5N(C)[C@@H]3N3C(=O)C(SC)([C@@H](C)O)N(C)C(=O)C3(SC)[C@H]4O)[C@H](O)C2(SC)C(=O)N1C (stereo not given in full) |  |  |  |  | Active | inactive | inactive | 1 | Tde | Active
